Columns and labels:
[1] = tested on: human hepatic stellate cells (HHSC); test: HHSC proliferation inhibition, WST-1 cell proliferation assay; type: cell-based; settings: AT-II 10^-6M + LPS 10^-5M; ARB 10^-6M, obeticholic acid 5×10^-6M; 24 hours; WST-1 absorbance
Procedure: The various combined effects of obeticholic acid and three types of ARBs (losartan, valsartan, and candesartan) were confirmed in an in vitro cell system experiment. Specifically, using human hepatic stellate cells (HHSC), which are implicated in the main mechanism of progression of hepatic fibrosis in NASH, the effects of administration of obeticholic acid in combination with the three ARBs of inhibiting HHSC proliferation capacity and the expression of fibrosis markers were evaluated according to the following method. Human hepatic stellate cells (HHSC) (also referred to as human hepatic star cells) Obeticholic acid (obtained from Intercept Pharmaceuticals, Inc. via Sumitomo Dainippon Pharma Co., Ltd.) was used as an FXR agonist, and commercial losartan (potassium salt of losartan; referred to in this working example simply as “losartan”) and valsartan and candesartan ([…] of candesartan; referred to in this working example simply as “candesartan”) were used as ARBs. […] The direct action of inhibiting HIISC proliferation capacity was evaluated by means of a cell proliferation assay using WST-1 reagent. […] AT-II (10^-6M) Positive control group L […]): LPS 10^-5M) Positive control group AL ([…]): (10^-6M)+LPS (10^-5M) Obeticholic acid administration (G3): AT-II (10^-6M)+LPS (10^-5M)+obeticholic acid (5×10^-6M) ARB administration (G4): AT-II (10^-6M)+LPS (10^-5M)+ARB (10^-6M) Obeticholic acid+ARB combined administration (G5): AT-II (10^-6M)+LPS (10^-5M)+obeticholic acid (5×10^-6M)+ARB (10^-6M) 3) After the cells of the above groups (G1, G2A, G2L, G2AL, G3, G4, G5) were cultured for 24 hours, respective WST-1 cell proliferation assays were conducted, and the inhibitory effect of the pharmaceutical agents on cell proliferation was evaluated. The inhibitory effect of valsartan and candesartan on HHSC proliferation was also evaluated according to steps 1)-3) above. […]

TGF-β1 = test: HHSC fibrosis marker gene expression, RT-PCR, TGF-β1; type: cell-based, human; settings: AT-II 10^-6M + LPS 10^-5M; ARB 10^-6M, obeticholic acid 5×10^-6M; 24 hours; monotherapy vs G2AL, combination vs monotherapy groups
Procedure: (§1) The various combined effects of obeticholic acid and three types of ARBs (losartan, valsartan, and candesartan) were confirmed in an in vitro cell system experiment. Specifically, using human hepatic stellate cells (HHSC), which are implicated in the main mechanism of progression of hepatic fibrosis in NASH, the effects of administration of obeticholic acid in combination with the three ARBs of inhibiting HHSC proliferation capacity and the expression of fibrosis markers were evaluated according to the following method. Human hepatic stellate cells (HHSC) (also referred to as human hepatic star cells) Obeticholic acid (obtained from Intercept Pharmaceuticals, Inc. via Sumitomo Dainippon Pharma Co., Ltd.) was used as an FXR agonist, and commercial losartan (potassium salt of losartan; referred to in this working example simply as “losartan”) and valsartan and candesartan ([…] of candesartan; referred to in this working example simply as “candesartan”) were used as ARBs. Angiotensin II (AT-II) and/or lipopolysaccharide (LPS) were used (both AT1-mediated AT-II signalling and TLR4-mediated LPS signaling are known to play major roles in HSC activation and the progression of hepatic fibrosis). With respect to the effect of inhibiting fibrosis marker gene expression, collagen production capacity and TGF-β production capacity were evaluated by the RT-PCR method. 1) HHSCs were inoculated onto a 6-well plate in the amount of 300,000 cells/2 ml and allowed to proliferate in 1% FBS DMEM medium for 24 hours. 2) After 24 hours, the cells were divided into the following 7 groups and transferred to culture medium after adding the following drugs and/or reagents. Losartan was used as an ARB. Negative control group (G1): No drugs added (control) […] AT-II (10^-6M) Positive control group L […]): LPS (10^-5M) Positive control group AL ([…]): (10^-6M)+LPS (10^-5M) Obeticholic acid administration (G3): AT-II (10^-6M)+LPS (10^-5M)+obeticholic acid (5×10^-6M) ARB administration (G4): AT-II (10^-6M)+LPS (10^-5M)+ARB (10^-6M) Obeticholic acid+ARB combined administration (G5): AT-II (10^-6M)+LPS (10^-5M)+obeticholic acid (5×10^-6M)+ARB (10^-6M) […] Evaluations were conducted in the five groups G1, G2AL, G3, G4, and G5.

α1(I) procollagen = test: HHSC fibrosis marker gene expression, RT-PCR, α1(I) procollagen; type: cell-based, human; settings: AT-II 10^-6M + LPS 10^-5M; ARB 10^-6M, obeticholic acid 5×10^-6M; 24 hours; monotherapy vs G2AL, combination vs monotherapy groups
Procedure: as §1

CCCCC(=O)N(Cc1ccc(-c2ccccc2-c2nnn[nH]2)cc1)[C@H](C(=O)O)C(C)C [valsartan]
statistically significant inhibition: promotion of activated HHSC proliferation by AT-II and LPS, compared to positive control group AL (G2AL) [1] | TGF-β1 mRNA expression induced by AT-II and LPS in HHSC (TGF-β1) | α1(I)-procollagen mRNA expression induced by AT-II and LPS in HHSC (α1(I) procollagen)

CCOc1nc2cccc(C(=O)O)c2n1Cc1ccc(-c2ccccc2-c2nn[nH]n2)cc1 [candesartan]
statistically significant inhibition: promotion of activated HHSC proliferation by AT-II and LPS, compared to positive control group AL (G2AL) [1] | TGF-β1 mRNA expression induced by AT-II and LPS in HHSC (TGF-β1) | α1(I)-procollagen mRNA expression induced by AT-II and LPS in HHSC (α1(I) procollagen)
